Source: paper PMC9887672, “Predicting human cardiac QT alterations and pro-arrhythmic effects of compounds with a 3D beating heart-on-chip platform” (Toxicological Sciences, 2022)
Entries after “also recorded” stand apart in the source; their conditions may differ. Where two headings read alike, the source gives them in different places.

Columns and labels:
[1] = cited from earlier work; for fETPC: free effective therapeutic plasma concentration, ref Nguyen et al. (2017), Yamazaki et al. (2018)
[2] = system: uHeart 3D cardiac microtissues (h-iPSC-CMs and dermal fibroblasts in fibrin); assay: Drug screening on uHeart: field potential recording (FPDcF, BP, AMP, arrhythmic events, beating cessation); conditions: for Concentration at which the described FPDcF change was seen: aspirine: increment just above LOW threshold, alfuzosin: slight shortening; for [%FPDcF] >LOW, drug concentration: concentration causing FPDcF change by 10% vs baseline; for Arrhythmic events: detected (Y) or not (N) in uHeart; for Effect on FPDcF (in words) / Effect on beating period BP (in words) / Effect on spike amplitude AMP (in words): incremental doses; for Effect on FPDcF (in words): change vs baseline; for TdP risk category proposed from uHeart score: score vs ratio effective concentration/fETPC, Figure 6D; for FPDcF alteration, direction, at [%FPDcF]>HIGH: threshold HIGH = 20% change vs baseline; for FPDcF alteration, direction, at [%FPDcF] >MID: threshold MID = 15% change vs baseline; for Arrhythmic events, lowest detected concentration: value in brackets in Table 2
Description: Human adult dermal fibroblasts were provided by Lonza Group Ltd. H-iPSC-CMs were thawed according to standard protocols and immediately used. Fibroblasts were expanded at confluency in DMEM (Gibco, 4.5 g l^−1 glucose) supplemented with 10% v/v FBS, 100 U ml^−1 penicillin, 100 μg ml^−1 streptomycin, and 10 mmol HEPES and used at passage 10–11. […] Subsequently, 2 μl of cell solution was inoculated into the central channel of each chamber of the uBeat Platform (provided by BiomimX Srl). The hydrogel was cross-linked in the incubator at 37°C for 8 min before manually adding the plating medium (FUJIFILM Cellular Dynamics Inc.) supplemented with 100 U ml^−1 penicillin, 100 μg ml^−1 streptomycin, and 2 mg ml^−1 of 6-Aminocaproic acid (ACA). […] This medium was used and changed every day for the following 6 days.
Field potential (FP) measurements (Figure 1B) were performed after 6 or 7 days of culture, when the model expresses a strong spontaneous and synchronous beating. […] An AgCl ground electrode was inserted in one of the 4 cell culture medium reservoirs. Cell culture medium was changed at least 1 h prior to perform the measurements. To execute the tests, uHeart was maintained in the incubator at 37°C with 5% CO2 and the electrodes were connected to an extracellular amplifier (Ext-02b, Npi Electronic GmbH, Germany) with a 1 × 10^4 gain and a bandpass filter between 0.3 Hz and 10 kHz. FPs were acquired with an electronic board (Analog Discovery 2, Digilent, Washington) at a rate of 2000 samples s^−1.
The cell culture medium was exchanged with fresh serum-free RPMI medium and after 1 h the baseline FP signal was recorded for at least 3 min. Subsequently, the lowest drug dose was administered to the microtissues and incubated at 37°C for 10–20 min before recording the corresponding FP for at least 3 min. Between each incremental dose, a 5-min washing was performed with serum-free RPMI medium.
Results of BP, FPD, and AMP assessed by the algorithm were compared against manual measurement. BP and FPD were additionally analyzed by applying an initial bandwidth filter to the signal (3rd order Butterworth filter, 0.67–100 Hz, zero phase), to further verify the quality of the estimates obtained. After the validation, the algorithm was used to analyze the FP signal recorded during the pharmacological campaign. Signals not correctly recognized by the software, as verified by visual inspection on the user interface, were manually analyzed.
For compounds not evoking responses, the maximum tested concentration respect to the fETPC was used.
A quality control was established to select the signals to be considered for the evaluation of electrophysiological parameters changes in response to increasing concentrations of compounds. […] This inclusion criteria ensured that the developed cardiac microtissues spontaneously beat in a consistent way and allowed to normalize the obtained FP signals with correction methods based on the beating frequency.

[3] = TdP risk category; ref Blinova et al., 2017; cited from earlier work
[4] = set-up: method as in Mair et al., 2022; conditions: long incubation, after 7 days; ref Mair et al., 2022; cited from earlier work
[5] = clinical highest blood drug concentration, ref Blinova et al. (2017), Kopljar et al. (2018), Voelker and Hammer (2012)

SMILES	Cmax [1, 5] [nM]	fETPC [1] [µM]	[%FPDcF] >LOW, drug concentration [2] [µM]	Arrhythmic events ([2]; also in words)	Effect on FPDcF (in words) [2]	TdP risk category proposed from uHeart score [2]	FPDcF alteration, direction, at [%FPDcF]>HIGH [2]	FPDcF alteration, direction, at [%FPDcF] >MID [2]	Arrhythmic events, percentage of uHearts affected [2] [%]	Effect on beating period BP (in words) [2]	other results
COc1cc2nc(N(C)CCCNC(=O)C3CCCO3)nc(N)c2cc1OC (stereo not shown) [Alfuzosin]	15	0.01	0.3	caused arrhythmic beating	did not showed a peculiar trend	low-risk	↔ [drawing 30]	↔ [drawing 29]	–	–	Concentration at which the described FPDcF change was seen [2]: 300 nM; FPDcF prolongation ([2]; at high concentration (ie,100 µM)): ~10%; Effect on FPDcF (in words) ([2]; listed as alfuzosin): shortening
CC(=O)Oc1ccccc1C(=O)O [Aspirin]	24400	7.1	–	–	did not change the FPDcF	low-risk	↔ [drawing 33]	↔ [drawing 32]	–	–	Concentration at which the described FPDcF change was seen [2]: 300000 nM; Effect on FPDcF (in words) ([2]; listed as aspirine): increment of the FPDcF just above the LOW threshold only at the highest concentration tested; FPDcF alteration, direction, at [%FPDcF] >LOW ([2]; threshold LOW = 10% change vs baseline): ↔ [drawing 31]
COc1cc(N)c(Cl)cc1C(=O)NC1CCN(CCCOc2ccc(F)cc2)CC1OC (stereo not shown) [Cisapride]	–	–	–	caused arrhythmic beats	slightly decrease in the FPDcF; also recorded: shortened the repolarization time at all considered thresholds; also recorded: did not revealed a FPDcF prolongation	high risk	–	–	50	–	Risk CiPa [3]: I; Stop, percentage of uHearts [2]: 25%; uHearts that ceased beating over uHearts tested [2]: 2 over 4; Stop (spontaneous beating cessation) ([2]; Y or N, also in words): interrupted the spontaneous beating of microtissues
CN(CCOc1ccc(NS(C)(=O)=O)cc1)CCc1ccc(NS(C)(=O)=O)cc1 [Dofetilide]	–	–	–	Arrhythmic events were detected	concentration-dependent prolongation of the FPDcF	high risk	–	–	66	slightly increased the BP	Stop, percentage of uHearts [2]: 33%; uHearts that ceased beating over uHearts tested [2]: 1 over 3; Effect on spike amplitude AMP (in words) [2]: incremental decrease in the AMP; Effect on FPDcF (in words) ([2]; listed as dofetilide): prolonged the FPDcF above the defined thresholds; also recorded: dose-related FPDcF prolongation
Cc1cccc(C)c1OCC(C)N (stereo not shown) [Mexiletine]	–	2.5	50	–	–	low-risk	↔ [drawing 21]	↔ [drawing 20]	–	did not show a trend in altering neither the FPDcF nor the BP; also recorded: without majorly affecting the FPDcF or the BP	Concentration at which AMP statistically decreased ([2]; already at medium concentration): 10000 nM; Effect on spike amplitude AMP (in words) [2]: statistically decreased in a concentration-dependent way; also recorded: dose-related statistically significant reduction of the FP amplitude
C=C[C@H]1C[N@@]2CC[C@H]1C[C@@H]2[C@@H](O)c1ccnc2ccc(OC)cc12 [Quinidine]	3000	3	0.06	Arrhythmic events were detected	prolonged the FPDcF above the defined thresholds; also recorded: dose-related FPDcF prolongation	high risk	–	–	50	slightly increased the BP	[%FPDcF] >MID, drug concentration ([2]; concentration causing FPDcF change by 15% vs baseline): 1 µM; [%FPDcF]>HIGH, drug concentration ([2]; concentration causing FPDcF change by 20% vs baseline): 10 µM; Arrhythmic events, lowest detected concentration [2]: 0.1 µM
COc1ccccc1OCC(O)CN1CCN(CC(=O)Nc2c(C)cccc2C)CC1 (stereo not shown) [Ranolazine]	–	–	–	generated arrhythmia; also recorded: caused arrhythmic beating	statistically enhanced the repolarization time; also recorded: prolonged the FPDcF; also recorded: dose-related FPDcF prolongation	high-risk	–	–	20	increase the BP	Effect on beating period BP (in words) ([2]; listed as ranolazine): rose the BP
CC(C)NCC(O)c1ccc(NS(C)(=O)=O)cc1 (stereo not shown) [Sotalol]	–	–	–	did not elicit any arrhythmia; also recorded: not found to provoke arrhythmic events	prolonged the FPDcF above the defined thresholds; also recorded: dose-related FPDcF prolongation	high risk	–	–	–	slightly increased the BP; also recorded: drug dose dependent increase of the BP	–
CC(C)(C)c1ccc(C(O)CCCN2CCC(C(O)(c3ccccc3)c3ccccc3)CC2)cc1 (stereo not shown) [Terfenadine]	0.29	0.00029	–	arrhythmic events	statistically prolonged the FPDcF at high dosages; also recorded: prolongation of the FPDcF	high risk	–	–	60	without affecting the BP	Reduction of compound by absorption in PDMS [4]: about 20%; fETPC in the presence of metabolic inhibition ([1]; patients, cytochrome P450 inhibitor, ref Redfern et al., 2003): about 4 nM; Cmax ([1]; read-out: Cmax or fETPC, clinical value of patients, ref Ando et al., 2017): 0.29 nM; Concentration at which FPDcF was statistically prolonged ([2]; Kruskal-Wallis with Dunn's test): 300 nM; Concentration found effective in uHeart ([2]; as quoted in Discussion): 100000 nM; Arrhythmic events, lowest detected concentration [2]: 0.001 µM
